Measured values as given in patent US4736045A, “Process for fluorinating ethers” (priority 1983, dated 1988).

Test: Critical temperature and normal boiling point of heat pump working fluids
Assay type: physicochemical
Conditions: working fluid in a heat pump (TC = 150° C., TE = 100° C.)

| SMILES | critical temperature | normal boiling point |
| --- | --- | --- |
| FC(F)(F)C(F)(F)C(F)(F)C1(F)OC(F)(F)C(F)(F)C1(F)F (stereo not shown) [perfluoro-2-propyloxolane] | 206 °C | 79 °C |
| COCC(F)(F)C(F)C(F)(F)F (stereo not shown) [1.1.1.2.3.3. hexafluoro butyl methyl ether] | 236 °C | 87 °C |
